Read-outs that look alike come from different tables or passages of the source.
Columns and labels:
H460 cell lines = experiment: In vitro cytotoxicity (AlamarBlue) with or without ABT-888, H460; type: cell-based; settings: Homo sapiens
Experimental: (§1) The effect of the PARP inhibitor, ABT-888, on TH-302 activity was investigated in three human cancer cell lines: human non small cell lung H460, human melanoma A375, and human colorectal carcinoma HCT116.
(§2) Cells were pretreated with ABT-888 for 1 h under normoxia, and then co-incubated with TH-302 for additional 2 h under either normoxia or hypoxia. After 3 days of incubation in the presence of ABT-888, cell viability was determined using AlamarBlue. For the temozolomide (TMZ) group, cells were co-treated with temozolomide and ABT-888 for 3 days after 1 h pretreatment with ABT-888.

HCT116 cell lines = experiment: In vitro cytotoxicity (AlamarBlue) with or without ABT-888, HCT116; type: cell-based; settings: Homo sapiens
Experimental: as §1, §2

A375 cell lines = experiment: In vitro cytotoxicity (AlamarBlue) with or without ABT-888, A375; type: cell-based; settings: Homo sapiens
Experimental: as §1, §2

AA8 = experiment: Cytotoxicity in AA8 cells (Table 7); type: cell-based, chinese hamster; settings: Cricetulus griseus
From the text: (§3) In contrast, the activity of the monoalkylating agent temozolomide was enhanced by ABT-888 in these cancer cell lines (see, Tables 1, 3, and 5).

EM9 cells = experiment: Cytotoxicity in EM9 cells deficient in base excision repair gene XRCC1 (Table 7); type: cell-based; settings: for Fold difference in sensitivity (anoxia) / Fold difference in sensitivity (normoxia): AA8 versus EM9
From the text: as §3

AA8 cells = experiment: Cytotoxicity in wild type AA8 cells, 2 h treatment, alamar blue (Table 8); type: cell-based, chinese hamster; settings: for IC50: Cricetulus griseus
Experimental: (§4) The role of homology-directed DNA repair (HDR) on TH-302 was investigated in wild type and HDR deficient chinese hamster ovary (CHO) cells. […] TH-302 activity can be modulated by pharmacological modulators of both reductases and DNA damage and repair pathways. TH-302 activity can be inhibited by the flavin reductase inhibitor DPI. TH-302 activity was not affected by the PARP inhibitor ABT-888.
(§5) The wild type AA8 cells and the HDR impaired irs1SF and UV41 cells were treated with TH-302 for 2 h, washed, and then incubated for 3 days. At the end of the incubation, viable cells were quantified using alamar blue.

irs1SF cells = experiment: Cytotoxicity in HDR impaired irs1SF cells, 2 h treatment, alamar blue (Table 8); type: cell-based, chinese hamster; settings: for IC50: Cricetulus griseus
Experimental: as §4, §5

UV41 cells = experiment: Cytotoxicity in HDR impaired UV41 cells, 2 h treatment, alamar blue (Table 8); type: cell-based, chinese hamster; settings: for IC50: Cricetulus griseus
Experimental: as §4, §5

[1] = tested on: multiple human cancer cell lines; experiment: Hypoxia-enhanced cytotoxicity in vitro; type: cell-based
From the text: In these examples, pharmacological tools were utilized to test the underlying mechanisms of DNA repair processes involved in the cellular response to TH-302. In vitro cytotoxicity assays were used as the primary read-out.

[2] = Modulation of TH-302 activity by the flavin reductase inhibitor DPI; type: cell-based; settings: with DPI
From the text: as §4

[3] = CHO-AA8, read-out: IC50 (μM) Anoxia AA8
[4] = CHO-AA8, read-out: IC50 (μM) Normoxia AA8
[5] = read-out: IC50 (μM) Normoxia EM9

## Cn1c(COP(=O)(NCCBr)NCCBr)cnc1[N+](=O)[O-] [TH-302]
H460 cell lines; NCI-H460, read-out: IC50 (μM) Hypoxia
  IC50: 0.2 µM
H460 cell lines; NCI-H460, read-out: IC50 (μM) Normoxia
  IC50: 47 µM
HCT116 cell lines; HCT-116, read-out: IC50 (μM) Hypoxia
  IC50: 0.1 µM
HCT116 cell lines; HCT-116, read-out: IC50 (μM) Normoxia
  IC50: 61 µM
A375 cell lines; A-375, read-out: IC50 (μM) Hypoxia
  IC50: 1.5 µM
A375 cell lines; A-375, read-out: IC50 (μM) Normoxia
  IC50: 230 µM
AA8; [3]
  IC50: 10 µM
AA8; [4]
  IC50: > 1000 µM
EM9 cells
  Fold difference in sensitivity (anoxia): 1 fold
EM9 cells; normoxia
  Fold difference in sensitivity (normoxia): >1.3 fold
EM9 cells; read-out: IC50 (μM) Anoxia EM9
  IC50: 14 µM
EM9 cells; [5]
  IC50: 760 µM
AA8 cells; CHO-AA8, N2, read-out: IC50 (μM) N2
  IC50: 1.1 µM
AA8 cells; CHO-AA8, air, read-out: IC50 (μM) Air
  IC50: 340 µM
AA8 cells; ratio air/N2
  HCR: 310
irs1SF cells; N2, read-out: IC50 (μM) N2
  IC50: 0.5 µM
irs1SF cells; air, read-out: IC50 (μM) Air
  IC50: 95 µM
irs1SF cells; ratio air/N2
  HCR: 190
UV41 cells; N2, read-out: IC50 (μM) N2
  IC50: 0.02 µM
UV41 cells; air, read-out: IC50 (μM) Air
  IC50: 16 µM
UV41 cells; ratio air/N2
  HCR: 800
[1]
  hypoxia-enhanced cytotoxicity: about 400 fold
[2]
  TH-302 activity in the presence of the flavin reductase inhibitor DPI: inhibited

## Nc1n[n+]([O-])c2ccccc2[n+]1[O-] [Tirapazamine, tirapazamine]
AA8; [3]
  IC50: 50 µM
AA8; [4]
  IC50: > 1000 µM
EM9 cells
  Fold difference in sensitivity (anoxia): 3 fold
EM9 cells; read-out: IC50 (μM) Anoxia EM9
  IC50: 15 µM
EM9 cells; [5]
  IC50: > 1000 µM

## Cn1nnc2c(C(N)=O)ncn2c1=O [Temozolomide, temozolomide, reference compound]
H460 cell lines; NCI-H460, H460, normoxia, 3 days co-treatment after 1 h ABT-888 pretreatment, read-out: IC50 (μM), Normoxia
  IC50: 540 µM
HCT116 cell lines; HCT-116, HCT116, normoxia, 3 days co-treatment after 1 h ABT-888 pretreatment, read-out: IC50 (μM), Normoxia
  IC50: 890 µM
A375 cell lines; A-375, A375, normoxia, 3 days co-treatment after 1 h ABT-888 pretreatment, read-out: IC50 (μM), Normoxia
  IC50: 510 µM
AA8; CHO-AA8, AA8, normoxia, read-out: IC50 (μM) Normoxia AA8
  IC50: > 1000 µM
EM9 cells; normoxia
  Fold difference in sensitivity (normoxia): >5.9 fold
EM9 cells; EM9, normoxia, read-out: IC50 (μM) Normoxia EM9
  IC50: 168 µM
